# Measured values: US11898168B2, “Methods of promoting esophageal differentiation of pluripotent stem cells” (The Trustees of Columbia University in the City of New York, priority 2017, dated 2024)
# Key:
# Type in all cases: cell-based, human
# [1] = tested on: NOTCH signaling; test: Expression of NOTCH downstream targets in iPSC-derived EPCs; details: 10 μM
# Description: (§1) Cells were lysed with TRIzol (Invitrogen) and RNA was purified using the RNeasy Mini Kit (QIAGEN). RNA was reversely transcribed to cDNA by the SuperScript III First-Strand SuperMix (Invitrogen). cDNA was quantified by real-time PCR using the iQ SYBR Green Supermix (Bio-Rad) and StepOnePlus™ Real-Time PCR System (Applied Biosystems). The transcript level of each gene was normalized to the ß-actin control using 2(−ΔΔCT) method. Relative gene expression was calculated and reported as fold change compared to the indicated samples using ß-actin normalized transcript level. All qRT-PCR experiments were performed at least triplicate.
# (§2) It was then tested whether NOTCH signaling is involved in the differentiation of hPSC-derived EPCs. The iPSC-derived EPCs were treated with 10 μM γ-secretase inhibitor DAPT to block NOTCH signaling. As expected, treatment with DAPT led to downregulation of HESS, HEY1 and HEY2, the downstream targets of NOTCH signaling (Kopan and Ilagan, 2009).
# [2] = tested on: hESC RUES2-derived AFE cells; test: Specification of anterior foregut endoderm (AFE) towards esophageal progenitor cells, day 6-16, gene expression by qPCR/immunostaining
# Description: hPSCs were differentiated into endodermal and anterior foregut using a previously described protocol (Huang et al., 2015; Huang et al., 2014). Serum-Free Differentiation (SFD) medium was prepared as follows: 750 ml of reconstituted IMDM (ThermoFisher Scientific), 250 ml of F-12 (Corning), 7.5 ml of BSA (ThermoFisher Scientific), 10 ml of Glutamax (ThermoFisher Scientific), 5 ml of N2 (ThermoFisher Scientific), 10 ml of B27 (ThermoFisher Scientific) and 10 ml of Penicillin/Streptomycin (ThermoFisher Scientific), and adding L-Ascorbic acid (Sigma-Aldrich) and MTG (Sigma-Aldrich) on the day of use to obtain a final concentration of 50 μg/ml and 0.04 μl/ml, respectively. To generate endoderm, hPSCs were detached by Accutase/EDTA and cultured in SFD medium plus 10 μM Rock inhibitor 100 ng/ml Activin A, Y-27632 (Tocris), 2.5 ng FGF2 and 0.5 ng/ml BMP4 (R&D Systems) in 6-well Ultra-Low-Attachment plates (Corning) for 72 hours (day 1-4). At day 4, anterior foregut progenitor cells were further induced by culturing endoderm in SFD medium plus 10 μM SB431542 (Tocris) and 100 ng/ml Noggin (R&D Systems) for 24 hours (day 4-5) and SFD medium plus 10 μM SB431542 and 1 μM IWP-2 (Tocris) for another 24 hours (day 5-6). Cells were maintained at 5% O2/95% N2/5% CO2 from day 1-6.
# To induce esophageal progenitor cell differentiation, anterior foregut progenitor cells were cultured from day 6 to day 16 in SFD medium plus 10 μM SB431542 and 50 ng/ml Noggin. From day 16 to day 24, cells were maintained at SFD medium. A previously described protocol was followed to generate lung progenitor cells from AFE (Huang et al., 2015; Huang et al., 2014) in which AFE cells were cultured in 3 μM CHIR99021 (Tocris), 10 ng/ml human FGF10 (R&D Systems), 10 ng/ml human KGF (R&D Systems), 10 ng/ml human BMP4 and 50 nM retinoid acid (RA, Sigma). Cells were cultured at 5% O2/95% N2/5% CO2 at day 6-7 and maintained at 95% air/5% CO2 from day 7 onwards.
# For immunofluorescence staining, cells were fixed in 4% paraformaldehyde (PFA) for 15 minutes at room temperature and washed with 1×PBS for three times. Cells were permeabilized with 0.3% Triton X-100 in 1×PBS for 15 minutes. Then cells were incubated in blocking solution (0.3% Triton X-100 plus 2% donkey serum in 1×PBS) for 1 hour. Primary antibodies were added into blocking solution and incubated at 4° C. overnight. The next day, cells were washed with 1×PBS for three times. Secondary antibodies conjugated to Alexa Fluor 488, Cy3, or Alexa Fluor 647 (Jackson Immunoresearch) were incubated for 1 hour. Images were taken using Leica DMI6000 B (Leica Microsystems) or DMi8 (Leica Microsystems) and a Zeiss LSM700 confocal laser scanning microscope. Bright field images were acquired using a Nikon Labophot 2 microscope equipped with a Nikon Digital Sight DS-Ri1 charge-coupled device camera. The thickness and areas composed of KRT13^+ cells were calculated by ImageJ (National Institutes of Health). For X-gal staining, tissues were fixed in 4% paraformaldehyde for 30 minutes and incubated in X-gal solution overnight at 37° C. as previously described (Que et al., 2006).
# as §1
# [3] = tested on: hPSC-derived EPCs; test: Squamous differentiation of purified hPSC-derived EPCs (KRT13, INV, KRT14 levels)
# Description: To perform cell surface marker staining, cells were disassociated with 0.05% Trypsin-EDTA (ThermoFisher Scientific) and stained with fluorophore conjugated antibodies in FACS buffer (1×PBS, 2% FBS, 0.2 mM EDTA) for 30 min with live/dead staining dye (LIVE/DEAD™ Fixable Violet Dead Cell Stain Kit, ThermoFisher Scientific) to exclude dead cells. Intracellular staining cells were performed according to the manufacturer's instructions in eBioscience™ Foxp3/Transcription Factor Staining Buffer Set (ThermoFisher Scientific). Fixation and permeabilization was performed at room temperature for 1 hour followed by incubation of primary antibody for 1 hour. Cells were washed with 1×PBS and fluorophore-conjugated secondary antibodies were incubated for 1 hour. Stained cells were analyzed BD FACSCanto (BD Biosciences) data were analyzed with FlowJo software (Ashland, Oregon). Sorted EPCAM^+ ITGß4^+ cells were maintained in the medium containing 5% FBS, 20 ng/ml EGF, 20 ng/ml FGF2 and 10 μM Rock inhibitor Y27632.
# as §1
# The inventors have previously shown that BMP signaling activation promotes terminal differentiation of esophageal progenitors in the developing and adult esophagus (Jiang et al., 2015; Rodriguez et al., 2010). It was asked whether purified hPSCs-derived EPCs (ESC and iPSC-derived) respond to BMP activation in a similar manner.
# as §2
# [4] = 10 μM, iPSC-derived EPCs, vs vehicle, FIG. 6D
# [5] = WNT activation in the presence of Noggin and SB431542, FIG. 1F
# [6] = BMP4 treatment vs vehicle, ESC and iPSC-derived EPCs, FIGS. 6A-B
molecule,measurement,setting,value
C[C@H](NC(=O)Cc1cc(F)cc(F)c1)C(=O)N[C@H](C(=O)OC(C)(C)C)c1ccccc1 [DAPT],HESS expression (downstream target of NOTCH signaling),[1],downregulation
same,HEY1 expression (downstream target of NOTCH signaling),[1],downregulation
same,HEY2 expression (downstream target of NOTCH signaling),[1],downregulation
same,initial EPC commitment from the AFE,"[2]; DAPT applied during PSC differentiation from AFE to EPC, FIG. 6C",did not affect
same,expression of INV at the transcription and protein levels,[3]; [4],reduced expression
same,expression of KRT13 at the transcription and protein levels,[3]; [4],reduced expression
Cc1c[nH]c(-c2cnc(NCCNc3ccc(C#N)cn3)nc2-c2ccc(Cl)cc2Cl)n1 [GSK inhibitor],levels of the general foregut marker SOX2,[2]; [5],remained unchanged
same,levels of the posterior foregut marker HNF6,[2]; [5],increased
same,levels of the posterior foregut marker PROX1,[2]; [5],increased
same,p63 expression,[2]; [5],reduced p63 expression in a dose-dependent manner
Cc1ccc2nc(NC(=O)CSc3nc4c(c(=O)n3-c3ccccc3)SCC4)sc2c1 [IWP2],esophageal specification,"[2]; Noggin plus SB431542 in combination with 0.5, 1 or 2 μM IWP2, day 6 to day 16, gene expression at day 16, FIG. 1I",does not affect
same,p63 expression,"[2]; added to culture treated with Noggin and SB431542 at day 6-16, FIG. 1I",did not further promote
"BMP4: BMP signaling activator, growth factor (R&D Systems) (protein, UniProt P12644 293-408, looked up) Bone morphogenetic protein 4: SPKHHSQRARKKNKNCRRHSLYVDFSDVGWNDWIVAPPGYQAFYCHGDCPFPLADHLNSTNHAIVQTLVNSVNSSIPKACCVPTELSAISMLYLDEYDKVVLKNYQEMVVEGCGCR",differentiation of hPSC-derived EPCs,[3]; BMP4 treatment,promotes
same,levels of Involucrin (INV),[3]; [6],significantly increase
same,levels of KRT13,[3]; [6],significantly increase
same,levels of KRT14,"[3]; BMP4 treatment, FIG. 6B",increased
"Noggin: BMP inhibitor (R&D Systems) (protein, UniProt Q13253 28-232, looked up) Noggin: QHYLHIRPAPSDNLPLVDLIEHPDPIFDPKEKDLNETLLRSLLGGHYDPGFMATSPPEDRPGGGGGAAGGAEDLAELDQLLRQRPSGAMPSEIKGLEFSEGLAQGKKQRLSKKLRRKLQMWLWSQTFCPVLYAWNDLGSRFWPRYVKVGSCFSKRSCSVPEGMVCKPSKSVHLTVLRWRCQRRGGQRCGWIPIQYPIISECKCSC",AFE differentiation into p63+ NKX2.1- EPCs,"[2]; Noggin treatment alone at day 6-16, FIG. 1E",insufficient
"DKK1: WNT inhibitor (protein, UniProt O94907 32-266, looked up) Dickkopf-related protein 1: TLNSVLNSNAIKNLPPPLGGAAGHPGSAVSAAPGILYPGGNKYQTIDNYQPYPCAEDEECGTDEYCASPTRGGDAGVQICLACRKRRKRCMRHAMCCPGNYCKNGICVSSDQNHFRGEIEETITESFGNDHSTLDGYSRRTTLSSKMYHTKGQEGSVCLRSSDCASGLCCARHFWSKICKPVLKEGQVCTKHRRKGSHGLEIFQRCYCGEGLSCRIQKDHHQASNSSRLHTCQRH",p63 expression,"[2]; WNT inhibitor alone, hPSCs, FIG. 1E",insufficient
